Reference: patent US20260345654A1, “2,8-DIHYDROXYQUINOLINE GLUCURONIDE DERIVATIVES WITH ENHANCED PROPERTIES FOR USE AS ANTICANCER, ANTIVIRAL, ANTIMICROBIAL, AND OTHER THERAPEUTIC APPLICATIONS” (priority 2023, published 2026)
pIC50: −log10 of the molar value.

How the values were obtained:
[1] = test system: ulcerative lesion to mid forehead; test: Case study, topical W1469, ulcerative lesion (Individual 3); type: in vivo, human; settings: Individual 3, twice daily, after one week
Method: Topical gel containing 0.5 mg/ml W1469 in proprietary aqueous alcohol gel, applied initially once daily using a suitable topical applicator.
In general, the Treatment/Patient protocol used for the patient testing was as follows: • 1. Photograph the application site prior to starting the protocol. Note any changes in lesion size, color, etc. of treatment area. • 2. Remove a loaded syringe from the freezer, dry ice or refrigerator and allow to gradually warm to room temperature. • 3. Photograph the syringe each time prior to application. Note the color of the gel contained in the syringe. • 4. Lightly clean the skin surface with alcohol wipe. • 5. […] Let the liquid from the gel absorb into the site without disturbing. Apply once a day at the same time. • 6. Re-cap the syringe and store in the refrigerator until completely used. • 7. Repeat 1-6 each daily during application period. It is noted in this protocol that photographing the syringe used with each application period accomplishes two things.
Physician administered, variable treatment protocol, drug concentrations and vehicle carrier. A person with ulcerative lesion to mid forehead approximately 3 mm×4 mm. […]. Non painful and without exudate. Therapy applied on a twice daily dosing schedule.

[2] = test system: cancer cell lines; test: Anti-proliferative activity against cancer cell lines (overall statements); type: cell-based
Method: (§1) Commercially available 8HQ and freshly synthesized G2-8HQ were prepared for in vitro anti-proliferative studies against the following cell lines with and without the presence of 10 μM Cu(+2): (1) A549: […]; (2) BT-549: epithelial cells from ductal tumor; (3) DU-145: human prostate cancer; (4) PANC-1: pancreatic cancer; (5) SU.86.86: a new adoptive pancreatic cell for immunotherapy studies; (6) RL: non-Hodgkin's lymphoma; (7) LnCAP, Prostate cancer cell line; (8) A431, a squamous cell carcinoma line; and (9) UACC-62 a malignant melanoma cell line.
(§2) With regard to the study protocol used, the objective was to conduct a study of the cytotoxicity of W1469 against several cancer cell lines. In the study protocol, preparations for the A549 (Lung) cell line screen are given as an example. The following materials were used: (1) FBS (2) RPMI-1640 medium supplemented with 10% FBS:’ and (3) A549 Cells. The four samples tested are referred to as Items 1-4 below and were placed at 4 °C upon arrival. These four samples were as follows: • Item 1: Tube A (W1469) (500 uM when FBS added) • Item 2: Tube B (W1469g) (1000 uM when FBS added) • Item 3: Tube C (W1469) • Item 4: Tube D (W1469g)
Add 50 μL of above 2× stocks to appropriate wells to expose appropriate cells to the final dilutions of samples. Add 50 μL media to media and cell control wells and 50 μL media mix to vehicle control wells. Cells are exposed for 72 hr. Following a 72 hr exposure to Sample, perform a CTG assay on all remaining plates.
At the end of the 72 hr exposure period, remove plates for CellTiter-Glo assay from 37 °C, 5% CO2 incubator and place on the bench at room temperature for 30 mins. Add 100 μL CellTiter-Glo reagent, mix for 2 mins, followed by a further 10 min incubation at room temperature. Record luminescence. Tables showing the resulting plate layouts are included below/

[3] = test system: A549 cells; test: In vitro anti-proliferation (CellTiter-Glo, 72 hr), A549; type: cell-based, human
Method: as §1, §2
Items 1 and 2 are sterile ready for the addition of 1 ml of sterile FBS. Final concentrations after addition of 1 ml: 500 μM for Tube A and 1000 μM for Tube B. Items 3 and 4 are described further below. In the protocol, media containing 10% FBS and 20 μM CuCl2 are used in Tubes C and D only. A and B are serially diluted in media with 10% FBS and no added copper.
The protocol method proceeds as follows:
Seed 2, 96-well plates of A549 cells with 5,000 cells per well in a total volume of 50 μL per well. Leave overnight. See plate layout below for which wells to seed with 100 μL of media for media control. The following day, cells are exposed to compounds as described below.
For Items 1 & 2, to make the 500 μM and 1000 μM Stocks of samples 1 and 2 (W1469 and W1469g): Add 1 ml of sterile FBS to each Tube A and Tube B, swirl to mix.
To make appropriate 2× final dilutions of sample 1, Tube A (W1469), the following amounts are used: • 500 μM: 10 mL as supplied • 100 μM: 2 mL 500 μM Sample+8 mL media • 30 μM: 3 mL 100 μM Sample+7 mL media • 10 μM: 3 mL 30 μM Sample+6 mL media • 3 μM: 3 mL 10 μM Sample+7 mL media • 1 μM: 3 mL 3 μM Sample+6 mL media • 0.3 μM: 3 mL 1 μM Sample+7 mL media • 0.1 μM: 3 mL 0.3 μM Sample+6 mL media
To make appropriate 2× final dilutions of sample 2, Tube B (W1469g), the following amounts are used: • 1000 μM: 10 mL as supplied • 300 μM: 3 mL 1000 μM Sample+7 mL media • 100 μM: 3 mL 300 μM Sample+6 mL media • 30 μM: 3 mL 100 μM Sample+7 mL media • 10 μM: 3 mL 30 μM Sample+6 mL media • 3 μM: 3 mL 10 μM Sample+7 mL media • 1 μM: 3 mL 3 μM Sample+6 mL media • 0.3 μM: 3 mL 1 μM Sample+7 mL media
For Items 3 & 4, the following protocol was used to make 1000 uM Stocks of samples 3 and 4 (W1469 and W1469g): • 1: Dissolve 3.37 mg W1469 and excipient (Tube C) in 1 ml RPMI medium without added FBS and copper and swirl briefly until completely dissolved. Add 9 ml of RPMI media containing 10% FBS and 20 uM copper. Swirl to mix. Sterile filter the 10 ml with provided syringes and filters. This is now the 1000 μM stock solution W1469 ready for screening • 2: Dissolve 3.2 mg W1469g and excipient (Tube D) in 1 ml RPMI medium without added FBS and copper and swirl briefly until completely dissolved. […] This is now the 1000 μM stock solution W1469g ready for screening. […]

O=C(O)[C@H]1O[C@@H](Oc2ccc3cccc(O)c3n2)[C@H](O)[C@@H](O)[C@@H]1O [G2-8HQ, 8-Hydroxy-2-quinolinyl beta-D-glucopyranosiduronic acid]
erythema, exudate, or hyperkeratosis [1]: No erythema, exudate, or hyperkeratosis noted | ulcerative lesion [1]: resolution of ulcerative lesion | cytotoxicity ([2]; absence of copper): absence of cytotoxicity (no measurable IC50 in standard drug concentration ranges) | anticancer activity ([2]; all cell lines tested): powerful anticancer activity against all cell lines tested | Active w/o Cu (cancer) ([2]; comparison Table 5): No | pIC50 ([2]; without copper, six of the nine carcinoma cell lines): < 3.30 | cytotoxicity ([3]; 1 and 0.5 μM, presence of Cu^+2 ions, wide standard deviation): in some percentage of the screens all the cancer cells were killed at these concentrations | improvement of cytotoxicity in presence of copper ([3]; A549, 10 or 20 μM Cu^+2 vs −Cu): 8-18 fold | pIC50 ([3]; Homo sapiens, A549, 72 h, −Cu, 72 hr): < 3.30
